Laboratory results published in US20220202799A1, “PHARMACEUTICAL FORMULATIONS CONTAINING P2Y14 ANTAGONISTS” (priority 2019, published 2022).
Several values for one entry are separate records, joined by “and”; a condition that tells them apart may be missing. Equal values may be shown once.

How the values were obtained:
[1] = Potency and purity of diluted dosing solutions after manufacture and shipping; format: physicochemical; conditions: for [KB-1801] determined by HPLC assay: shipped at ambient temperature
Method: The stability of high-concentration PPTN solutions containing SBECD were analyzed under conditions used for product manufacturing and distribution. A stock solution containing 8.6 mg/mL PPTN, 12% SBECD in saline was prepared as described above and shipped under refrigerated conditions. Seven days after manufacture, the stock solution was diluted to make dosing solutions for administration as a continuous intravenous infusion as indicated in Table 14 and Table 15.
Samples of diluted dosing solutions were shipped at ambient temperature and analyzed for PPTN (KB-1801) potency and purity.

[2] = TPGS enhancement of solubility of PPTN at neutral pH; format: physicochemical
Method: α-Tocopherol polyethylene glycol succinate (TPGS) was tested for enhancement of solubility of PPTN at neutral pH. A solution containing 5 mg/mL PPTN and 4% TPGS was made by mixing components as indicated in Table 5 with stirring and heating.
To create a solution suitable for in vitro studies, the solution containing 5 mg/mL PPTN and 4% TPGS created above was diluted into phosphate-buffered saline by mixing components as indicated in Table 6.

[3] = Urine PPTN concentration after single bolus intravenous injection; format: in vivo; conditions: male rats; single bolus intravenous injection 0.85, 2.9 or 8.5 mg/kg
Method: (§1) The pharmacokinetics of PPTN (KB-1801) in male rats receiving single bolus intravenous injections of SBECD-containing solutions were analyzed. Three cohorts of four rats each were given a single dose of PPTN (KB-1801) at 0.85 mg/kg, 2.9 mg/kg, or 8.5 mg/kg in 1 mL dosing volume.

[4] = Solubility of PPTN in SBECD-containing saline solutions; format: physicochemical; conditions: 9 mg/mL PPTN (HCl salt) in 12% SBECD/saline; room temperature for 28 days
Method: Sulfobutylether-β-cyclodextrin (SBECD) was tested for the ability to increase the solubility of PPTN in aqueous media.
A stock solution containing 12% SBECD was prepared as follows: 9 mL of saline was added to 1.21 g of SBECD in a 10 mL flask, and the mixture was sonicated for 5 minutes. Saline was then added to achieve a final volume of 10 mL. The pH of the final solution was about 7.
The solubility of PPTN in solutions containing various concentrations of SBECD was analyzed. Excess PPTN was added to saline solutions containing various concentrations of SBECD, insoluble material was removed by filtration, and the PPTN concentration in the filtered solution was analyzed.
A solution containing 9 mg/mL PPTN was prepared as follows. 4.7 mL of 12% SBECD solution, prepared as described above, was added to a 5 mL flask containing 45 mg PPTN (HCl salt), and the mixture was sonicated with heat for 50 minutes. After sonication, 12% SBECD solution to achieve a final volume of 5 mL. The warm solution appeared clear. The solution was allowed to cool to room temperature and was incubated at room temperature for 28 days.

rats = test: Safety of PPTN/SBECD formulations during continuous intravenous infusion; format: in vivo; conditions: male Sprague-Dawley rat; 72-hour intravenous infusion at 100 mg/kg
Method: (§2) The safety and pharmacokinetics of PPTN (KB-1801) in rats receiving continuous intravenous injections of SBECD-containing solutions were analyzed. Three cohorts of six male and six female rats each were given continuous intravenous infusion of PPTN (KB-1801) at 10 mg/kg/day, 30 mg/kg/day or 100 mg/kg/day in a dosing solution containing PPTN at 0.25 mg/mL, 0.75 mg/mL or 2.5 mg/mL and SBECD at about 3.8%. Dosing volume was 40 mIkg/day.

[5] = Urine concentrations, 72-hour continuous intravenous infusion; format: in vivo, Sprague-Dawley rats; conditions: individual animals; for Total amount in urine: all intervals
Method: as §2

[6] = Loss of PPTN due to adherence to surfaces of vessels; format: physicochemical; conditions: 200 ng/ml PPTN, no solubilizing agent, 24 hours
Method: The loss of PPTN due to adherence to surfaces of vessels was analyzed. PPTN is a hydrophobic compound that may adhere to plastics and other surfaces. To test how much PPTN is lost due to surface adhesion, an aqueous solution containing 200 ng/ml PPTN and less than 0.1% acetonitrile was incubated in the absence of solubilizing agent in various vessels for 24 hours. […]

[7] = Plasma pharmacokinetics after single bolus intravenous injection; format: in vivo; conditions: male rats; single bolus intravenous injection 0.85, 2.9 or 8.5 mg/kg; SBECD solution
Method: as §1

[8] = Solubility of PPTN at pH ranges suitable for intravenous injection; format: physicochemical
Method: The solubility of PPTN at pH ranges suitable for intravenous injection was analyzed. PPTN (HCl salt) was dissolved in DMSO to make a stock solution, and the stock solution was diluted into various aqueous solutions. […] The solutions were then adjusted to achieve a pH ≥5.0, and the solutions were observed again.

[9] = dosing solution, targeted [KB-1801] 0.25 mg/mL
[10] = dosing solution, targeted [KB-1801] 0.75 mg/mL
[11] = dosing solution, targeted [KB-1801] 2.5 mg/mL
[12] = 72-hour IV infusion 10 mg/kg/day, male rats, interval 0-4 h
[13] = 72-hour IV infusion 10 mg/kg/day, male rats, interval 4-9 h
[14] = 72-hour IV infusion 10 mg/kg/day, male rats, interval 20-24 h
[15] = 72-hour IV infusion 10 mg/kg/day, male rats, interval 44-48 h
[16] = 72-hour IV infusion 10 mg/kg/day, male rats, interval 68-72 h
[17] = 72-hour IV infusion 10 mg/kg/day, male rats, interval 92-96 h

SMILES: O=C(O)c1cc(-c2ccc(C3CCNCC3)cc2)c2ccc(-c3ccc(C(F)(F)F)cc3)cc2c1 [KB-1801, 4-[4-(piperidin-4-yl)phenyl]-7-[4-(trifluoromethyl)phenyl]-2-naphthoic acid]
- Concentration higher than target concentrations ([1]; all dosing solution samples): 1.6-8.0%
- Degradation products ([1]; all dosing solution samples): No evidence of degradation products was observed in any sample
- Impurity profile by HPLC area % [1, 9]: No imp > 0.10 a %
- [KB-1801] determined by HPLC assay [1, 9]: 0.27 mg/mL and 0.26 mg/mL
- Impurity profile by HPLC area % [1, 10]: No imp > 0.10 a %
- [KB-1801] deviation from targeted concentration [1, 10]: +1.3%
- [KB-1801] determined by HPLC assay [1, 10]: 0.76 mg/mL
- Impurity profile by HPLC area % [1, 11]: No imp > 0.10 a %
- [KB-1801] determined by HPLC assay [1, 11]: 2.56 mg/mL and 2.57 mg/mL
- Solution pH (final) ([2]; 100 μM KB-1801, 0.04 wt % TPGS in buffered saline): Final pH: 7.4
- Solution appearance ([2]; 100 μM KB-1801, 0.04 wt % TPGS in buffered saline (5 mg/ml solution diluted 100x)): Resulting clear solution
- Solution appearance ([2]; 5 mg/mL KB-1801, 4 wt % TPGS, after phosphate buffer 20 mM pH 8.3): Resulting clear
- Solution pH (final) ([2]; 5 mg/mL KB-1801, 4 wt % TPGS, phosphate buffer, buffered saline): Final pH: 7.0-7.4
- Solution appearance ([2]; 5 mg/mL KB-1801 with TPGS solution, 4 wt %, stirring and heating): Resulting clear
- Urine concentration compared with plasma [3]: in excess of plasma concentrations
- Solution appearance [4]: remained clear throughout the entire incubation
- Mortality, animal 16003 (rats): NS: No Sample. Animal 16003 died shortly after the 24h timepoint according to CRL.
- Total amount in urine ([5]; 72-hour IV infusion 10 mg/kg/day, female rats): 27.3 µg and 16.4 µg and 10.5 µg and 18.5 µg and 20.9 µg and 29.4 µg
- Total amount in urine ([5]; 72-hour IV infusion 10 mg/kg/day, male rats): 54.2 µg and 46.1 µg and 62.5 µg and 83.7 µg and 74.4 µg and 60.9 µg
- Amount in urine [5, 12]: 6.09 µg and 4.08 µg
- Urine Conc. [5, 12]: 6.09 µg/mL and 8.16 µg/mL and 3.50 µg/mL and 7.91 µg/mL
- Amount in urine [5, 13]: 11.5 µg and 5.46 µg and 8.50 µg and 6.95 µg
- Urine Conc. [5, 13]: 7.64 µg/mL and 5.46 µg/mL and 17.0 µg/mL and 6.95 µg/mL and 15.8 µg/mL
- Amount in urine [5, 14]: 20.7 µg and 10.0 µg and 7.20 µg and 30.9 µg
- Urine Conc. [5, 14]: 20.7 µg/mL and 20.1 µg/mL and 24.0 µg/mL and 10.3 µg/mL and 19.4 µg/mL
- Amount in urine [5, 15]: 2.48 µg and 14.1 µg and 22.9 µg
- Urine Conc. [5, 15]: 24.8 µg/mL and 14.1 µg/mL and 45.9 µg/mL and 13.7 µg/mL
- Amount in urine [5, 16]: 19.3 µg and 23.2 µg and 28.5 µg and 22.7 µg
- Urine Conc. [5, 16]: 19.3 µg/mL and 23.2 µg/mL and 28.5 µg/mL and 22.7 µg/mL and 20.9 µg/mL
- Amount in urine [5, 17]: 0.07 µg and 0.15 µg and 1.23 µg and 0.08 µg and 0.18 µg
- Urine Conc. [5, 17]: 0.13 µg/mL and 0.10 µg/mL and 0.62 µg/mL and 0.20 µg/mL and 0.09 µg/mL and 0.07 µg/mL
- Total amount in urine ([5]; 72-hour IV infusion 30 mg/kg/day, female rats): 75.7 μg and 78.9 μg (2×) and 66.9 μg and 80.5 μg and 131.7 μg
- Total amount in urine ([5]; 72-hour IV infusion 30 mg/kg/day, male rats): 188.0 µg and 165.1 µg and 250.3 µg and 108.4 µg and 87.4 µg and 332.4 µg
- Total amount in urine ([5]; 72-hour IV infusion 100 mg/kg/day, female rats): 251.8 µg and 191.6 µg and 78.7 µg and 198.3 µg and 151.4 µg and 353.9 µg
- Total amount in urine ([5]; 72-hour IV infusion 100 mg/kg/day, male rats): 337.1 µg and 155.1 µg and 785.2 µg and 453.6 µg and 537.2 µg and 438.9 µg
- % recovery vs. control ([6]; Corning pipette tip): 22%
- % recovery vs. standard ([6]; Corning pipette tip): 6%
- % recovery vs. control ([6]; Eppendorf clear conical tube): 19%
- % recovery vs. standard ([6]; Eppendorf clear conical tube): 5%
- % recovery vs. control ([6]; Eppendorf orange conical tube): 25%
- % recovery vs. standard ([6]; Eppendorf orange conical tube): 6%
- % recovery vs. control ([6]; Versilon SE200 Tygon tubing): 8%
- % recovery vs. standard ([6]; Versilon SE200 Tygon tubing): 2%
- % recovery vs. control ([6]; polyetheretherketone tubing): 22%
- % recovery vs. standard ([6]; polyetheretherketone tubing): 6%
- PK parameters, relation to dose [7]: linearly dose-related
- Pharmacokinetics of plasma PPTN, model [7]: well-described by a 2-compartment model
- Solution appearance at 24 hours ([8]; 0.015 mg/mL (~29 μM), 1.5 mg DMSO stock solution diluted 100x in water, pH 4-5): Clear
- Remarks when pH adjusted to 5-5.5 ([8]; 1.0 mg/mL, DMAc/Water (10/90, v/v), initial pH ~2): Became cloudy
- Solution appearance at 24 hours ([8]; 5.0 mg/mL, 1.5 mg DMSO stock solution diluted 100x in PBS (20 mM), pH 5-6): Hazy
- Remarks when pH adjusted to 5-5.5, after sonication ([8]; 5.0 mg/mL, DMAc/Water (10/90, v/v) with ~0.1% Tween 80, after sonication): became clear
- Remarks when pH adjusted to 5-5.5 ([8]; 5.0 mg/mL, DMAc/Water (10/90, v/v) with ~0.1% Tween 80, initial pH 1-2): Became slightly cloudy;
- Remarks when pH adjusted to 5-5.5 ([8]; 5.0 mg/mL, DMAc/Water (10/90, v/v), initial pH 1-2): Became very cloudy
- Remarks when pH adjusted to 5-5.5 ([8]; 5.0 mg/mL, NMP/Water (10/90, v/v), initial pH 1-2): Became very cloudy
- Remarks when pH adjusted to 5-5.5 ([8]; 5.0 mg/mL, Propylene Glycol/Water (10/90, v/v), initial pH 1-2): Became very cloudy
